For the first assay, the system named is mouse (BALB/c, male). Kind of assay: Effect of lipopolysaccharide induction on neutrophilic infiltration in mouse lung. In kind it is in vivo. The conditions noted are these: 5 h; neutrophil infiltration in BAL fluid, LPS-exposed BALB/c mouse, oral, dose 3 mg/kg; read-out: SUPPRESSION RATIO. Here is the method: Effect of Lipopolysaccharide Induction on Neutrophilic Infiltration in Mouse Lung A compound to be tested was orally administrated to a mouse (BALB/c, male), and after 30 minutes, the mouse was placed in a plastic container. Lipopolysaccharide (0.3 mg/mL) dissolved in physiological saline was aerosolized with an ultrasonic wave nebulizer (NE-U17, OMRON Corporation), and exposed to the mouse for 10 minutes. After 5 hours, the anesthetized mouse was sacrificed by exsanguination. A cannula was inserted in the respiratory tract and bronchoalveolar lavage (BAL) with 1 mL of 0.85% NaCl liquid containing 0.4% sodium citrate was carried out. This operation was repeated 3 times, to obtain a BAL fluid. The BAL fluid was centrifuged at 4° C. and ×200 g for 5 minutes, and the pellet was suspended in a physiological saline containing 0.1% BSA. The number of white blood cells was counted using Turks solution with a microscope, and the total white blood cell count was calculated. The white blood cells were fixed on a glass slide using Cytospin 3 (Thermo BioAnalysis Japan K. K.). The cells were stained with Diff-Quik (SYSMEX INTERNATIONAL REAGENTS CO., LTD.), and the number thereof was counted with a microscope, and the neutrophil ratio was calculated. The neutrophil ratio was multiplied by the total white blood cell count to calculate the total neutrophil count. An effect of the compound to be tested represents a percentage (%) of suppression ratio relative to the neutrophil count in a control.
With `COc1ccc([C@@H]2CNC(=O)C2NC(=O)Nc2ccc(F)cc2)cc1` (mixture of isomers) [Example 1-54, (±)-trans-1-(4-fluorophenyl)-3-[4-(4-methoxyphenyl)-2-oxopyrrolidin-3-yl]urea], the inhibition in vivo at 3 mg/kg is 98.6%. Turning to `CO/N=C1\NC[C@@H](c2ccc(OC)cc2)[C@@H]1NC(=O)Nc1ccc(F)cc1` (single isomer, unassigned) [EXAMPLE 32-1, (−)-1-(4-Fluorophenyl)-3-[(3S*,4R*,Z)-2-(methoxyimino)-4-(4-methoxyphenyl)pyrrolidin-3-yl]urea], the inhibition in vivo at 3 mg/kg amounted to 99%.

For the next assay, the target named is T1, human FPRL1 (Homo sapiens, UniProt P25090).
T1 construct: expressed in transfected cells; host or cells: HEK293 (JCRB9068, NIBIO), transient transfection with pCMV-script vectors using Lipofectamine 2000
T1 sequence (P25090 1-351): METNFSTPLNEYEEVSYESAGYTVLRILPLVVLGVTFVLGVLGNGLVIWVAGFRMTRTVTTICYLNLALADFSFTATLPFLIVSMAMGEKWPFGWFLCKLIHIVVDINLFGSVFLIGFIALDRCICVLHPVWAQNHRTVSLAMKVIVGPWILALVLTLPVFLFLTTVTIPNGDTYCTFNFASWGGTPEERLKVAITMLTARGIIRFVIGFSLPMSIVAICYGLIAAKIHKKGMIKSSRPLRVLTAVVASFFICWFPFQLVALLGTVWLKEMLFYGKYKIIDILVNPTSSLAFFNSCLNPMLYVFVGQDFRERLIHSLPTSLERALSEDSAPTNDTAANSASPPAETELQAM
Nature of the assay: Measurement test of agonist activity on human FPRL1 (test of calcium mobilization in cell, HEK293 with human FPRL1 and Gα15 expression vectors). The conditions noted are these: calcium mobilization in HEK293 cells with human FPRL1 and Gα15 expression vectors. The format is cell-based. The procedure, abridged:
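HEK293 transiently co-transfected with human FPRL1 and Gα15, plated 24 h before assay, loaded with Fluo-4 NW dye plus probenecid. Compounds in eight 10-fold dilutions (DMSO stocks 10^−2 to 10^−9 M, then diluted 100-fold in assay buffer); calcium mobilization read on Flexstation for EC50.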
For orientation: Calcium flux is commonly read through the fluorescence of an indicator in the cells.
On to `COc1ccc([C@@H]2CNC(=O)C2NC(=O)Nc2ccc(F)cc2)cc1` (mixture of isomers) [Example 1-54, (±)-trans-1-(4-fluorophenyl)-3-[4-(4-methoxyphenyl)-2-oxopyrrolidin-3-yl]urea], for which the EC50 is 0.11 nM.

On to `CO/N=C1\NC[C@@H](c2ccc(OC)cc2)[C@@H]1NC(=O)Nc1ccc(F)cc1` (single isomer, unassigned) [EXAMPLE 32-1, (−)-1-(4-Fluorophenyl)-3-[(3S*,4R*,Z)-2-(methoxyimino)-4-(4-methoxyphenyl)pyrrolidin-3-yl]urea], for which the EC50 came to 0.13 nM.

Regarding `COc1cc(F)c([C@@H]2CN/C(=N\OCCO)[C@H]2NC(=O)Nc2ccc(C#N)cc2)c(F)c1` (single isomer, unassigned) [EXAMPLE 32-13, (−)-1-(4-cyanophenyl)-3-{(3S*,4R*,Z)-4-(2,6-difluoro-4-methoxyphenyl)-2-[(2-hydroxyethoxy)imino]pyrrolidin-3-yl}urea], the EC50 is 0.25 nM.

Consider `CCOC(=O)CC/N=C1\NC[C@@H](c2c(F)cc(OC)cc2F)[C@@H]1NC(=O)Nc1ccc(F)cc1` [EXAMPLE 32-20, 3-((Z)-{(3S,4R)-4-(2,6-difluoro-4-methoxyphenyl)-3-[3-(4-fluorophenyl)ureido]pyrrolidin-2-ylidene}amino) propanoic acid ethyl ester], for which the EC50 is 2.86 nM. With `COc1ccc([C@@H]2CNC(=O)[C@H]2NC(=O)Nc2ccc(C#N)cc2)cc1` (single isomer, unassigned) [EXAMPLE 1-5, (−)-1-(4-cyanophenyl)-3-[(3S*,4R*)-4-(4-methoxyphenyl)-2-oxopyrrolidin-3-yl]urea], the EC50 is 2.88 nM. Turning to `CNC(=O)CN1C[C@@H](c2ccc(OC)cc2)[C@H](NC(=O)Nc2ccc(F)cc2)C1=O` (relative stereo) [Example 17-1, (−)-2-{(3S*,4R*)-3-[3-(4-Fluorophenyl)ureido]-4-(4-methoxyphenyl)-2-oxopyrrolidin-1-yl}-N-methylacetamide], the EC50 was 0.11 nM.

Turning to `COc1cc(F)c([C@@H]2CN/C(=N\O)[C@H]2NC(=O)Nc2ccc(F)cc2)c(F)c1` (single isomer, unassigned) [EXAMPLE 33-2, (−)-1-((3S*,4R*,Z)-4-(2,6-Difluoro-4-methoxyphenyl)-2-(hydroxyimino)pyrrolidin-3-yl)-3-(4-fluorophenyl)urea], the EC50 worked out at 0.03 nM.

As for `COc1ccc([C@@H]2CN/C(=N\OCCO)[C@H]2NC(=O)Nc2ccc(F)cc2)cc1` (single isomer, unassigned) [EXAMPLE 32-4, (−)-1-(4-fluorophenyl)-3-{(3S*,4R*,Z)-2-[(2-hydroxyethoxy)imino]-4-(4-methoxyphenyl)pyrrolidin-3-yl}urea], the EC50 worked out at 0.17 nM.

For `COc1ccc(C2CNC(=O)C2NC(=O)Nc2ccc(Cl)cc2)cc1` (single isomer, unassigned; (+)) [Example 12-12, (+)-1-(4-chlorophenyl)-3-[4-(4-methoxyphenyl)-2-oxopyrrolidin-3-yl]urea], the EC50 was found to be 0.9 nM. For the molecule `COc1cc(F)c([C@@H]2CNC(=O)[C@H]2NC(=O)Nc2ccc(C3CC3)cc2)c(F)c1` (relative stereo) [Example 1-62, (−)-1-(4-cyclopropylphenyl)-3-[(3S*,4R*)-4-(2,6-difluoro-4-methoxyphenyl)-2-oxopyrrolidin-3-yl]urea], the EC50 is 1.05 nM. Regarding `COc1cc(F)c([C@@H]2CN/C(=N\N3CCOCC3)[C@H]2NC(=O)Nc2ccc(F)cc2)c(F)c1` (single isomer, unassigned) [EXAMPLE 32-17, (−)-1-[(3S*,4R*,Z)-4-(2,6-difluoro-4-methoxyphenyl)-2-(morpholinoimino)pyrrolidin-3-yl]-3-(4-fluorophenyl)urea], the EC50 amounted to 0.57 nM.

Consider `CC(C)(C(=O)O)N1C[C@@H](c2cc3c(cc2F)OCC3)[C@H](NC(=O)Nc2ccc(F)cc2)C1=O` (relative stereo) [Example 22-2, (−)-2-{(3S*,4R*)-4-(6-Fluoro-2,3-dihydrobenzofuran-5-yl)-3-[3-(4-fluorophenyl)ureido]-2-oxopyrrolidin-1-yl}-2-methylpropanoic acid], for which the EC50 turned out to be 0.38 nM. Turning to `COc1cc(F)c([C@@H]2CNC(=O)[C@H]2NC(=O)Nc2ccc(Cl)cn2)c(F)c1` (relative stereo) [Example 1-32, (−)-1-(5-chloropyridin-2-yl)-3-[(3S*,4R*)-4-(2,6-difluoro-4-methoxyphenyl)-2-oxopyrrolidin-3-yl]urea], the EC50 was determined as 4.54 nM. With `COc1cc(F)c([C@@H]2CNC(=O)[C@H]2NC(=O)Nc2cc(C)ns2)c(F)c1` (relative stereo) [Example 1-58, (−)-1-[(3S*,4R*)-4-(2,6-difluoro-4-methoxyphenyl)-2-oxopyrrolidin-3-yl]-3-(3-methylisothiazol-5-yl)urea], the EC50 amounted to 0.32 nM. Same read-out and setting: under `COc1ccc([C@@H]2CNC(=O)[C@H]2NC(=O)Nc2ccc(F)cc2)s1` (single isomer, unassigned) [EXAMPLE 1-19, (−)-1-(4-fluorophenyl)-3-[(3S*,4R*)-4-(5-methoxythiophen-2-yl)-2-oxopyrrolidin-3-yl]urea] stands 0.72 nM; under `COc1ccc([C@@H]2CNC(=O)[C@H]2NC(=O)Nc2ccc(F)cc2)c(C)c1` (single isomer, unassigned) [EXAMPLE 1-11, (−)-1-(4-fluorophenyl)-3-[(3S*,4R*)-4-(4-methoxy-2-methylphenyl)-2-oxopyrrolidin-3-yl]urea], 1.59 nM; under `COc1cc(F)c([C@@H]2CN(CCO)C(=O)[C@H]2NC(=O)Nc2ccc(C)cc2)c(F)c1` (relative stereo) [Example 24-7, (−)-1-[(3S*,4R*)-4-(2,6-difluoro-4-methoxyphenyl)-1-(2-hydroxyethyl)-2-oxopyrrolidin-3-yl]-3-(p-tolyl)urea], 0.69 nM.

`O=C(O)CN1C[C@@H](c2cc3c(cc2F)OCC3)[C@H](NC(=O)Nc2ccc(F)cc2)C1=O` (relative stereo) [Example 16-3, (−)-2-{(3S*,4R*)-4-(6-fluoro-2,3-dihydrobenzofuran-5-yl)-3-[3-(4-fluorophenyl)ureido]-2-oxopyrrolidin-1-yl}acetic acid]: the EC50 was determined as 0.75 nM. In the case of `COc1cc(F)c([C@@H]2CN(CS(C)(=O)=O)C(=O)[C@H]2NC(=O)Nc2ccc(F)cc2)c(F)c1` (relative stereo) [Example 24-14, (−)-1-{(3S*,4R*)-4-(2,6-difluoro-4-methoxyphenyl)-1-[(methylsulfonyl)methyl]-2-oxopyrrolidin-3-yl}-3-(4-fluorophenyl)urea], the EC50 was found to be 0.12 nM. On the same count and under the same terms, under `COc1cc(F)c([C@@H]2CNC(=O)[C@H]2NC(=O)Nc2cccc(C#N)c2)c(F)c1` (relative stereo) [Example 7-12, (−)-1-(3-cyanophenyl)-3-[(3S*,4R*)-4-(2,6-difluoro-4-methoxyphenyl)-2-oxopyrrolidin-3-yl]urea] stands 3.9 nM. On to `COc1cc(F)c([C@@H]2CN(CCO)C(=O)[C@H]2NC(=O)Nc2ccccc2)c(F)c1` (relative stereo) [Example 24-6, (−)-1-[(3S*,4R*)-4-(2,6-difluoro-4-methoxyphenyl)-1-(2-hydroxyethyl)-2-oxopyrrolidin-3-yl]-3-phenylurea], for which the EC50 turned out to be 0.4 nM. With `CO/N=C1\NC[C@@H](c2c(F)cc(OC)cc2F)[C@@H]1NC(=O)Nc1ccc(Cl)nc1` (single isomer, unassigned) [EXAMPLE 32-10, (−)-1-(6-chloropyridin-3-yl)-3-[(3S*,4R*,Z)-4-(2,6-difluoro-4-methoxyphenyl)-2-(methoxyimino)pyrrolidin-3-yl]urea], the EC50 worked out at 0.53 nM. Take `CO/N=C1\NC[C@@H](c2c(F)cc(OC)cc2F)[C@@H]1NC(=O)Nc1cc2ccccc2s1` (single isomer, unassigned) [EXAMPLE 32-11, (−)-1-(benzo[b]thiophen-2-yl)-3-[(3S*,4R*,Z)-4-(2,6-difluoro-4-methoxyphenyl)-2-(methoxyimino)pyrrolidin-3-yl]urea]: the EC50 is 0.88 nM.

`COc1ccc(C2CNC(=O)C2NC(=O)Nc2ccc(Cl)cc2)cc1` (single isomer, unassigned; (-)) [Example 12-11, (−)-1-(4-chlorophenyl)-3-[4-(4-methoxyphenyl)-2-oxopyrrolidin-3-yl]urea]: the EC50 was 4.57 nM.

As usually defined, the EC50 is the concentration that produces a half-maximal response.

(Values after patent US9822069B2, “Urea derivative or pharmacologically acceptable salt thereof” (KYORIN PHARMACEUTICAL CO. LTD., priority 2013, dated 2017).)
